Experimental findings from patent publication EP0550016A1, “Novel quinolone carboxylic acid derivatives and processes for preparing same” (KOREA RESEARCH INSTITUTE OF CHEMICAL TECHNOLOGY, priority 1991, dated 1993) are described below.

Converted amounts (≈) assume the structure as drawn. Like-named read-outs stand apart in the source and are kept apart here. Where only a bound is given, the exact number is not on record here.

One assay deals with P. mirabilis. The experiment in a line: Preventive effect against the systemic infection. The format is in vivo. Conditions: Proteus mirabilis, 168 h, NMRI mice, survival on day 7, read-out: ED₅₀. As for the experimental part: 10 fold of the pathogen which leads to 100% lethality were injected intraperitoneally to male and female NMRI mice weighing 18 to 20g. Immediately and after 4 hours, the dose of test compounds which was determined by two-fold serial dilution method was administered orally or subcutaneously; and on day 7, the effectiveness was evaluated in terms of ED₅₀ calculated from the number of survived mice by the probit analysis.

The subject of assay [1] is Klebsiella aerogenes 1082 E. Description: In vitro anti-bacterial activity test (MIC, two-fold dilution method) against the standard strains. The format is cell-based. Conditions: Table 1 strain 17: Klebsiella aerogenes 1082 E.
For assay [2], the system named is Staphylococcus aureus 503. The assay is described as above. The format is cell-based. Conditions: Table 1 strain 6: Staphylococcus aureus 503; read-out: MIC.
For assay [3], the system named is Staphylococcus aureus 285. The description is as above. The class given is cell-based. The following applies: Table 1 strain 5: Staphylococcus aureus 285; read-out: MIC.
In assay [4] the test system is Escherichia coli DC 0. The description is as above. Conditions: DC0; Table 1 strain 7: Escherichia coli DC 0. The format is cell-based.
Another assay relates to Escherichia coli DC 2. The assay is described as above. The format is cell-based. The following applies: DC2; Table 1 strain 9: Escherichia coli DC 2; read-out: MIC.
In assay [5] the test system is Enterobacter cloacae 1321 E. The description is as above. The format is cell-based. The following applies: Table 1 strain 20: Enterobacter cloacae 1321 E.
Assay [6] deals with Pseudomonas aeruginosa 1771 M. Described as above. The class given is cell-based. The following applies: Table 1 strain 15: Pseudomonas aeruginosa 1771 M.
A further assay deals with Escherichia coli 1507 E. Described as above. The format is cell-based. Conditions: Table 1 strain 11: Escherichia coli 1507 E.
The test system of assay [7] is Escherichia coli DC 0. The assay is described as above. The class given is cell-based. The following applies: DC0; Table 1 strain 8: Escherichia coli DC 0.
For assay [8], the system named is Staphylococcus aureus SG 511. Described as above. Conditions: SG511; Table 1 strain 4: Staphylococcus aureus SG 511. The class given is cell-based.
Assay [9] has as its system Streptococcus pyogenes 77 A. The assay is described as above. The format is cell-based. The following applies: Table 1 strain 2: Streptococcus pyogenes 77 A; read-out: MIC.
The subject of assay [10] is Streptococcus pyogenes 308 A. The assay is described as above. The format is cell-based. Conditions: Table 1 strain 1: Streptococcus pyogenes 308 A.
Assay [11] relates to Pseudomonas aeruginosa 1592 E. The assay is described as above. The following applies: Table 1 strain 13: Pseudomonas aeruginosa 1592 E. The format is cell-based.
Assay [12] concerns Pseudomonas aeruginosa 9027. The description is as above. Conditions: Table 1 strain 12: Pseudomonas aeruginosa 9027. The format is cell-based.
The subject of another assay is Salmonella typhimurium. The assay is described as above. The format is cell-based. The following applies: Salmonella enterica; Table 1 strain 16: Salmonella typhimurium.
The subject of assay [13] is Klebsiella aerogenes 1522 E. The assay is described as above. The format is cell-based. The following applies: Table 1 strain 18: Klebsiella aerogenes 1522 E.
A further assay deals with Escherichia coli OTEM. The assay is described as above. The format is cell-based. The following applies: Table 1 strain 10: Escherichia coli OTEM.
For assay [14], the system named is Streptococcus faecium MD 8b. The assay is described as above. The class given is cell-based. The following applies: Enterococcus faecium, MD8B; Table 1 strain 3: Streptococcus faecium MD 8b; read-out: MIC.
Assay [15] has as its system Enterobacter cloacae P 99. The description is as above. The class given is cell-based. Conditions: P99; Table 1 strain 19: Enterobacter cloacae P 99.
Assay [16] deals with Pseudomonas aeruginosa 1771. Described as above. The format is cell-based. The following applies: Table 1 strain 14: Pseudomonas aeruginosa 1771.

For orientation: MIC means the lowest concentration that inhibits growth of the organism. For `NC1CC12CCN(c1c(F)cc3c(=O)c(C(=O)O)cn(C4CC4)c3c1Cl)C2` (centres unmarked) [Example 3, 7-(1-amino-5-azaspiro[2,4]heptane-5-yl)-8-chloro-1-cyclopropyl-6-fluoro-1,4-dihydro-4-oxoquinoline-3-carboxylic acid], the ED50 stood at 2.58 mg/kg in the assay with P. mirabilis (Oral Administration) and 0.63 mg/kg in the assay with P. mirabilis (sc, Subcutaneous Injection). For the same compound, the MIC is below 0.002 µg/mL in [1]; 0.004 µg/mL (≈ 0.0102 µM) in assay [2]; 0.007 µg/mL (≈ 0.0179 µM) in assay [3]; below 0.002 µg/mL with Escherichia coli DC 0 [4]; 0.025 µg/mL (≈ 0.0638 µM) with Escherichia coli DC 2; below 0.002 µg/mL in [5]. Further, the MIC in assay [6] worked out at 0.195 µg/mL (≈ 0.498 µM); against Escherichia coli 1507 E, 0.025 µg/mL (≈ 0.0638 µM); in the assay with Escherichia coli DC 0 [7] it was 0.195 µg/mL (≈ 0.498 µM); in assay [8] it was 0.025 µg/mL (≈ 0.0638 µM); in assay [9], 0.025 µg/mL (≈ 0.0638 µM); in assay [10], 0.098 µg/mL (≈ 0.25 µM). Moreover, the MIC in assay [11] was determined as 0.781 µg/mL (≈ 1.99 µM); in assay [12], 0.781 µg/mL (≈ 1.99 µM); against Salmonella typhimurium, 0.004 µg/mL (≈ 0.0102 µM); in [13] it was 0.004 µg/mL (≈ 0.0102 µM); with Escherichia coli OTEM, 0.007 µg/mL (≈ 0.0179 µM); in [14], 0.391 µg/mL (≈ 0.998 µM). Also, the minimal inhibitory concentration (MIC) in assay [15] was 0.004 µg/mL (≈ 0.0102 µM); in [16], 0.781 µg/mL (≈ 1.99 µM).
As for `NC1CC12CCN(c1nc3c(cc1F)c(=O)c(C(=O)O)cn3C1CC1)C2` (centres unmarked) [Example 6, 7-(1-amino-5-azaspiro[2,4]heptane-5-yl)-1-cyclopropyl-6-fluoro-4-oxo-1,4-dihydro-1,8-naphthyridine-3-carboxylic acid], the MIC in assay [1] was 0.391 µg/mL (≈ 1.09 µM); in assay [2], 0.049 µg/mL (≈ 0.137 µM); in assay [3], 0.049 µg/mL (≈ 0.137 µM); in the assay with Escherichia coli DC 0 [4], below 0.002 µg/mL; in the assay with Escherichia coli DC 2, 0.098 µg/mL (≈ 0.273 µM); in assay [5] it was below 0.002 µg/mL. Further, the MIC is 0.195 µg/mL (≈ 0.544 µM) in [6]; 0.025 µg/mL (≈ 0.0698 µM) with Escherichia coli 1507 E; 0.391 µg/mL (≈ 1.09 µM) against Escherichia coli DC 0 [7]; 0.049 µg/mL (≈ 0.137 µM) in assay [8]; 0.195 µg/mL (≈ 0.544 µM) in assay [9]; 0.391 µg/mL (≈ 1.09 µM) in assay [10]. Also, the MIC in assay [11] was found to be 1.56 µg/mL (≈ 4.36 µM); in assay [12], 1.56 µg/mL (≈ 4.36 µM); against Salmonella typhimurium, 0.025 µg/mL (≈ 0.0698 µM); in assay [13] it was 0.025 µg/mL (≈ 0.0698 µM); in the assay on Escherichia coli OTEM, 0.025 µg/mL (≈ 0.0698 µM); in assay [14] it was 0.195 µg/mL (≈ 0.544 µM). Also, the minimal inhibitory concentration (MIC) stood at 0.007 µg/mL (≈ 0.0195 µM) in assay [15] and 1.56 µg/mL (≈ 4.36 µM) in assay [16].
Take `NCC1CC12CCN(c1c(F)cc3c(=O)c(C(=O)O)cn(C4CC4)c3c1F)C2` (centres unmarked) [Example 15]: the minimum inhibitory concentration (MIC) in [1] came to 0.025 µg/mL (≈ 0.0642 µM); in assay [2], 0.195 µg/mL (≈ 0.501 µM); in assay [3], 0.195 µg/mL (≈ 0.501 µM); against Escherichia coli DC 0 [4], 0.049 µg/mL (≈ 0.126 µM); in the assay with Escherichia coli DC 2 it was 0.098 µg/mL (≈ 0.252 µM); in [5], 0.049 µg/mL (≈ 0.126 µM). For the same compound, the minimal inhibitory concentration (MIC) was found to be 0.391 µg/mL (≈ 1 µM) in assay [6]; 0.098 µg/mL (≈ 0.252 µM) against Escherichia coli 1507 E; 0.781 µg/mL (≈ 2.01 µM) in the assay on Escherichia coli DC 0 [7]; 0.098 µg/mL (≈ 0.252 µM) in [8]; 0.195 µg/mL (≈ 0.501 µM) in [9]; 0.781 µg/mL (≈ 2.01 µM) in assay [10]. In addition, the minimal inhibitory concentration (MIC) in [11] came to 1.56 µg/mL (≈ 4.01 µM); in assay [12], 1.56 µg/mL (≈ 4.01 µM); with Salmonella typhimurium, 0.098 µg/mL (≈ 0.252 µM); in assay [13], 0.195 µg/mL (≈ 0.501 µM); against Escherichia coli OTEM, 0.098 µg/mL (≈ 0.252 µM); in [14], 0.391 µg/mL (≈ 1 µM). Further, the MIC in assay [15] worked out at 0.195 µg/mL (≈ 0.501 µM); in [16], 1.56 µg/mL (≈ 4.01 µM).
